Among the test systems are SF-295 CNS; U251 CNS; SN12C renal; NCI-H460 lung; IGROV1 ovarian; HCT-15 colon; MCF7 breast; 786-0 renal; UACC-62 melanoma; HL-60(TB) leukemia.
Common to all, as to experiment: growth of human tumour cells (NCI), 48 h

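A five-concentration, 48-hour dose response in 96-well plates underlies each endpoint, interpolated linearly between surrounding concentrations. Here, GI50 denotes the concentration required for 50% inhibition of growth. Definition used: TGI = concentration required for complete inhibition of growth.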 A value given as a limit tells only on which side of the number the result lay.

Take `CON(C)C(=O)C(C)NC(=O)OCc1ccccc1` (stereo not given): the TGI with SF-295 CNS, in the assay with U251 CNS, in the assay with SN12C renal, in the assay on NCI-H460 lung, in the assay on IGROV1 ovarian and in the assay with HCT-15 colon was over 100 µM in each case. Further, the TGI in the assay with MCF7 breast, in the assay on 786-0 renal, with UACC-62 melanoma and in the assay on HL-60(TB) leukemia was over 100 µM throughout.
Turning to `CCN(c1ccc(CO)c(Cl)c1)C(C)c1ccc(F)cc1` (stereo not given), the GI50 in the assay on SF-295 CNS was 11.5 µM; with U251 CNS, 9 µM; in the assay with SN12C renal, 14.2 µM; in the assay with NCI-H460 lung, 7.88 µM; in the assay on IGROV1 ovarian it was 0.891 µM; in the assay with HCT-15 colon, 13.7 µM. The GI50 was 12.5 µM in the assay with MCF7 breast, 16.4 µM in the assay with 786-0 renal, 3.79 µM in the assay with UACC-62 melanoma and 17.9 µM with HL-60(TB) leukemia. Also, the TGI in the assay with SF-295 CNS is 24.3 µM; in the assay with U251 CNS it was 22 µM; in the assay with SN12C renal, 28.5 µM; with NCI-H460 lung it was 23.7 µM; in the assay with IGROV1 ovarian, 4 µM; in the assay with HCT-15 colon it was 28.9 µM. Besides, the TGI came out at 27.1 µM in the assay with MCF7 breast, 30.4 µM in the assay with 786-0 renal, 16.9 µM in the assay with UACC-62 melanoma and 38.1 µM in the assay on HL-60(TB) leukemia.
As for `COc1cc2cc(Oc3ccc(NC(=O)c4cccc(C(F)(F)F)c4)cc3)c(C)nc2cc1OC`, the GI50 is 2.73 µM in the assay on SF-295 CNS; 4.44 µM in the assay on U251 CNS; 6.39 µM in the assay with SN12C renal; 4.07 µM in the assay on NCI-H460 lung; 6.78 µM in the assay on IGROV1 ovarian; 4.65 µM in the assay with HCT-15 colon. Also, the GI50 in the assay on MCF7 breast is 3.47 µM; in the assay on 786-0 renal, 5.31 µM; in the assay with UACC-62 melanoma, 5.27 µM; with HL-60(TB) leukemia it was 3.84 µM. Further, the TGI in the assay on SF-295 CNS, in the assay with U251 CNS, in the assay on SN12C renal, in the assay with NCI-H460 lung, with IGROV1 ovarian and with HCT-15 colon was over 100 µM throughout. In addition, the TGI in the assay on MCF7 breast is 24.3 µM; in the assay on 786-0 renal it was over 100 µM; in the assay on UACC-62 melanoma it was over 100 µM; in the assay on HL-60(TB) leukemia, over 100 µM.
As for `Nc1cc2c3c(cccc3c1)NC2=O`, the TGI in the assay with SF-295 CNS, in the assay on U251 CNS, in the assay with SN12C renal, in the assay with NCI-H460 lung, with IGROV1 ovarian and in the assay on HCT-15 colon was over 100 µM each time. Also, the TGI in the assay on MCF7 breast, in the assay with 786-0 renal, with UACC-62 melanoma and with HL-60(TB) leukemia was over 100 µM throughout.
As to `CCc1nc(N)nc(N)c1-c1ccc([N+](=O)[O-])c(NCc2ccccc2)c1`, the TGI in the assay on SF-295 CNS amounted to 28.4 µM; in the assay on U251 CNS it was 30.1 µM; in the assay with SN12C renal it was 44.5 µM; with NCI-H460 lung it was 20.2 µM; in the assay with IGROV1 ovarian, 26.3 µM; with HCT-15 colon, 38.2 µM. For the same compound, the TGI was determined as 40.2 µM in the assay with MCF7 breast, 29.8 µM with 786-0 renal, 35.7 µM in the assay with UACC-62 melanoma and 18.7 µM in the assay on HL-60(TB) leukemia.
For `CS(=O)(=O)c1ccc(Cl)c([N+](=O)[O-])c1`, the GI50 in the assay on SF-295 CNS is 18.5 µM; in the assay on U251 CNS, 15.2 µM; in the assay with SN12C renal, 13.8 µM; in the assay on NCI-H460 lung it was 18.3 µM; in the assay on IGROV1 ovarian it was 18 µM; in the assay with HCT-15 colon, 5.91 µM. Besides, the GI50 is 10.9 µM in the assay on MCF7 breast, 19.9 µM in the assay on 786-0 renal, 15.1 µM with UACC-62 melanoma and 19.7 µM with HL-60(TB) leukemia. Besides, the TGI in the assay on SF-295 CNS turned out to be 37.9 µM; in the assay on U251 CNS it was 29 µM; in the assay on SN12C renal, 28.2 µM; in the assay with NCI-H460 lung it was 40.8 µM; with IGROV1 ovarian, 45.1 µM; with HCT-15 colon, 23.3 µM. The TGI in the assay with MCF7 breast was 33.7 µM; in the assay with 786-0 renal, 36.8 µM; with UACC-62 melanoma, 28.6 µM; in the assay on HL-60(TB) leukemia, 47.6 µM.
Regarding `COc1ccc2nc(-c3ccccc3)cc(Nc3cccc(/C(C)=N\O)c3)c2c1`, the GI50 was 2.05 µM with SF-295 CNS; 6.05 µM with U251 CNS; 6.05 µM in the assay with SN12C renal; 6.84 µM with NCI-H460 lung; 24.4 µM in the assay with IGROV1 ovarian; 29.8 µM with HCT-15 colon. Further, the GI50 is 16.8 µM in the assay on MCF7 breast, 2.09 µM in the assay on 786-0 renal, 5.42 µM with UACC-62 melanoma and over 100 µM with HL-60(TB) leukemia. Besides, the TGI with SF-295 CNS is 5.13 µM; in the assay with U251 CNS, 48.5 µM; in the assay with SN12C renal, 35.4 µM; in the assay on NCI-H460 lung it was over 100 µM; in the assay with IGROV1 ovarian it was over 100 µM; in the assay with HCT-15 colon it was over 100 µM. For the same compound, the TGI is over 100 µM in the assay on MCF7 breast, 5.15 µM in the assay with 786-0 renal, 30.5 µM in the assay on UACC-62 melanoma and over 100 µM in the assay with HL-60(TB) leukemia.

The record behind these values is PubChem BioAssay (NCI).
